Consider one compound from US9370537B2, “Compositions and methods for reducing inflammation” (Cerule, LLC, priority 2009, dated 2016).

The test can be described thus: Case report: menstrual cramps. The test is classed as in vivo, human. The note with it: person, single dose. Here is the method:
The anti-inflammatory effect of the 1117 fraction is evidenced by the following: • 1. A person experienced moderate to severe muscle pain after exercising. The person was in otherwise good health, but would consume four Advil after playing tennis. […] A person in good health and with regular menstruation typically experienced a day during menstruation with moderate to severe menstrual cramps. On one occasion, the painful cramps were so severe that they were not relieved by 1 hour heat or 1000 mg Tylenol. […] The relief happened within 5-10 minutes after consumption, and lasted 8 hours. • 3. A person in good health experienced severe, throbbing muscle pain after a 1-hour session of deep tissue massage. The pain was relieved within 30 minutes after consuming a single dose of 500 mg the 1117 fraction.

As for `CC(=O)Nc1ccc(O)cc1` [Tylenol], the “effect on severe menstrual cramps and pain” value was “not relieved”.
